Broadly, the IC50 is the concentration needed to halve the response being measured.

Consider 26 compounds from ChEMBL document CHEMBL3351488, “Design, synthesis and biological evaluation of novel arylpiperazine derivatives on human prostate cancer cell lines” (Bioorg Med Chem Lett, 2015).

In assay [1] the test system is LNCaP. The experiment in a line: Cytotoxicity against human LNCAP cells assessed as inhibition of cell viability after 24 hrs by CCK-8 assay. The format is functional, cell-based. (In general: Formazan colour is commonly taken as a measure of viable cells.)
Assay [2] deals with DU-145. The experiment in a line: Cytotoxicity against human DU145 cells assessed as inhibition of cell viability after 24 hrs by CCK-8 assay. The format is functional, cell-based. As to conditions: DU-145, 24 h.
Assay [3] in a line: Cytotoxicity against human PC3 cells assessed as inhibition of cell viability after 24 hrs by CCK-8 assay. The class given is functional, cell-based. As to conditions: PC-3, 24 h.
Assay [4] can be described thus: Cytotoxicity against human RWPE1 cells assessed as inhibition of cell viability after 24 hrs by CCK-8 assay. The format is cell-based. Conditions: RWPE-1, 24 h.

Molecules are shown by their SMILES.

On to `COc1cc(OC)cc(OCc2ccc(CCN3CCN(c4ccc(Br)cc4)CC3)cc2)c1`, for which the IC50 was greater than 50 µM in assay [1], 29.5 µM in assay [2], 25.6 µM in assay [3] and greater than 50 µM in assay [4].
Turning to `COc1cc(OC)cc(OCc2ccc(CCN3CCN(c4ccc(C(F)(F)F)cc4)CC3)cc2)c1`, the IC50 in assay [1] is greater than 50 µM; in assay [2], 28.5 µM; in assay [3], 23.8 µM; in assay [4], greater than 50 µM.
For `COc1cc(OC)cc(OCc2ccc(CCN3CCN(c4ccccc4S(C)(=O)=O)CC3)cc2)c1`, the IC50 in assay [1] is 0.97 µM; in assay [2], 7.68 µM; in assay [3], 9.42 µM; in assay [4], greater than 50 µM.
As for `COc1cc(OC)cc(OCc2ccc(CCN3CCN(c4ccc(F)cc4)CC3)cc2)c1`, the 50% inhibitory concentration (IC50) in assay [1] was 35 µM; in assay [2] it was 28.2 µM; in assay [3], 28.8 µM; in assay [4], greater than 50 µM.
The matching figures for `COc1cc(OC)cc(OCc2ccc(CCN3CCN(c4ccccc4F)CC3)cc2)c1`: 7.25 µM, 25.4 µM, 25.3 µM and 35.4 µM.
For `COc1cc(OC)cc(OCc2ccc(CCN3CCN(c4ccccc4C)CC3)cc2)c1`, the 50% inhibitory concentration (IC50) in assay [1] worked out at 35.8 µM; in assay [2], 19.3 µM; in assay [3], 30.2 µM; in assay [4] it was 35.6 µM.
Take `CCOc1ccccc1N1CCN(CCc2ccc(COc3cc(OC)cc(OC)c3)cc2)CC1`: the IC50 in assay [1] was greater than 50 µM; in assay [2] it was 27.2 µM; in assay [3] it was 27.1 µM; in assay [4] it was greater than 50 µM.
Consider `COc1cc(OC)cc(OCc2ccc(CCN3CCN(c4cccc(Cl)c4)CC3)cc2)c1`, for which the IC50 in assay [1] is 36.6 µM; in assay [2], 27.1 µM; in assay [3] it was 30.9 µM; in assay [4] it was greater than 50 µM.
Regarding `COc1cc(OC)cc(OCc2ccc(CCN3CCN(c4cccc(C)c4)CC3)cc2)c1`, the half-inhibitory concentration (IC50) in assay [1] was 2.35 µM; in assay [2], 28.6 µM; in assay [3], 30.6 µM; in assay [4], greater than 50 µM.
Consider `COc1cc(OC)cc(OCc2ccc(CCN3CCN(c4cc(Cl)ccc4C)CC3)cc2)c1`, for which the half-maximal inhibitory concentration (IC50) in assay [1] worked out at 2.73 µM; in assay [2], 28 µM; in assay [3], 32.2 µM; in assay [4], 36.5 µM.
As to `COc1cc(OC)cc(OCc2ccc(CCN3CCN(Cc4ccccc4)CC3)cc2)c1`, the IC50 in assay [1] was 6.07 µM; in assay [2] it was 5.83 µM; in assay [3] it was 6.79 µM; in assay [4] it was greater than 50 µM.
On to `COc1cc(OC)cc(OCc2ccc(CCN3CCN(c4cc(C)ccc4C)CC3)cc2)c1`, for which the half-maximal inhibitory concentration (IC50) in assay [1] is 36.1 µM; in assay [2], 27.6 µM; in assay [3], 31 µM; in assay [4], greater than 50 µM.
`COc1cc(OC)cc(OCc2ccc(CCN3CCN(c4cc(Cl)ccc4OC)CC3)cc2)c1`: the IC50 in assay [1] was 39.8 µM; in assay [2] it was 26.7 µM; in assay [3] it was 27.1 µM; in assay [4] it was greater than 50 µM.
In the case of `COc1cc(OC)cc(OCc2ccc(CCN3CCN(c4ccc(C#N)cc4)CC3)cc2)c1`, the IC50 in assay [1] was greater than 50 µM; in assay [2], 46.3 µM; in assay [3], 27.6 µM; in assay [4], 45.8 µM.
For `COc1cc(OC)cc(OCc2ccc(CCN3CCN(c4ccccn4)CC3)cc2)c1`, the IC50 in assay [1] was 42.3 µM; in assay [2], 16.8 µM; in assay [3], 25.6 µM; in assay [4], greater than 50 µM.
`COc1cc(OC)cc(OCc2ccc(CCN3CCN(c4ccccc4)CC3)cc2)c1`: the IC50 in assay [1] was greater than 50 µM; in assay [2], 25 µM; in assay [3] it was 31.2 µM; in assay [4], greater than 50 µM.
`COc1cc(OC)cc(OCc2ccc(CCN3CCN(c4ccccc4C(F)(F)F)CC3)cc2)c1`: the concentration for half-maximal inhibition (IC50) in assay [1] is greater than 50 µM; in assay [2], 39.2 µM; in assay [3] it was 40.3 µM; in assay [4], greater than 50 µM.
On to `COc1ccccc1N1CCN(CC(O)COc2cccc3ccccc23)CC1` (centres undefined) [NAFTOPIDIL], for which the half-maximal inhibitory concentration (IC50) in assay [1] is 22.4 µM; in assay [2] it was 34.6 µM; in assay [3], 42.1 µM; in assay [4] it was greater than 50 µM.
On to `COc1cc(OC)cc(OCc2ccc(CCN3CCN(c4cccc(Cl)c4Cl)CC3)cc2)c1`, for which the IC50 in assay [1] is greater than 50 µM; in assay [2], 30.2 µM; in assay [3] it was 18.4 µM; in assay [4], 36.6 µM.
The like results for `COc1ccc(N2CCN(CCc3ccc(COc4cc(OC)cc(OC)c4)cc3)CC2)cc1` were, in that order, greater than 50 µM, 19.2 µM, 32.9 µM and greater than 50 µM.
For `COc1cc(OC)cc(OCc2ccc(CCN3CCN(c4cccc(OC)c4)CC3)cc2)c1`, the 50% inhibitory concentration (IC50) is 20 µM in assay [1], 16.9 µM in assay [2], 25.3 µM in assay [3] and 39.9 µM in assay [4].
As to `COc1cc(OC)cc(OCc2ccc(CCN3CCN(c4ccc(C)cc4)CC3)cc2)c1`, the half-inhibitory concentration (IC50) in assay [1] was 35.2 µM; in assay [2] it was 24.1 µM; in assay [3], 48.2 µM; in assay [4], greater than 50 µM.
The matching figures for `COc1cc(OC)cc(OCc2ccc(CCN3CCN(c4ccc(Cl)cc4)CC3)cc2)c1`: greater than 50 µM, 12.7 µM, 18.9 µM and greater than 50 µM.
Turning to `COc1cc(OC)cc(OCc2ccc(CCN3CCN(c4ccccc4Cl)CC3)cc2)c1`, the half-inhibitory concentration (IC50) was 32.5 µM in assay [1], 23.2 µM in assay [2], 25.2 µM in assay [3] and greater than 50 µM in assay [4].
Take `COc1cc(OC)cc(OCc2ccc(CCN3CCN(c4ccc(F)cc4F)CC3)cc2)c1`: the IC50 in assay [1] is greater than 50 µM; in assay [2] it was 24.2 µM; in assay [3], 35.4 µM; in assay [4], greater than 50 µM.
As to `COc1cc(OC)cc(OCc2ccc(CCN3CCN(c4ccccc4OC)CC3)cc2)c1`, the half-inhibitory concentration (IC50) came out at 26.3 µM in assay [1], 30.5 µM in assay [2], 26.5 µM in assay [3] and 28.8 µM in assay [4].
